Data on 38 compounds can be found in ChEMBL document CHEMBL1201862, “PubChem BioAssay data set” (2004).

One data set relates to P388/ADR. Put plainly: cells. The format is functional. The note with it: Mus musculus.
A further data set has as its system P388. Put plainly: cells. The format is functional. The conditions noted are these: Mus musculus.
For another data set, the system named is SN12K1. The experiment in a line: cells. The conditions noted are these: Homo sapiens. The format is functional.
For data set [1], the target named is T1, Calpain-2 catalytic subunit (Sus scrofa, UniProt P43367).
T1 sequence (P43367 whole entry): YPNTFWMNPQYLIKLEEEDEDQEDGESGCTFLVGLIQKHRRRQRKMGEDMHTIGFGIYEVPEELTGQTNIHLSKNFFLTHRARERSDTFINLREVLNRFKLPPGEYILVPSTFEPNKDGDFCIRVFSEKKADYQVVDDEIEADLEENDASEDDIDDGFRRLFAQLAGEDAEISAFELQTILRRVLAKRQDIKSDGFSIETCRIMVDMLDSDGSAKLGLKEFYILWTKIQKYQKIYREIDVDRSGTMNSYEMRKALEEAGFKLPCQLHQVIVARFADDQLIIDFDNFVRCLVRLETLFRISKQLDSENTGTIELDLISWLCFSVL
The experiment in a line: m-calpain protease blockers, concentration series – biochemical, fluorogenic peptide substrate, dose response (AID 1420). The format is functional.

Data set [2] can be described thus: HIV-1 AD8 envelope cell-cell fusion blockers – cherry-pick, dose response (AID 652062).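 Note: luciferase signal from cell-cell fusion driven by HIV-1 clade B AD8 Env; potency is for inhibitors of fusion seen as a drop in luminescence.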 The format is functional, cell-based.
Data set [3] is described as follows: blockers of HIV-1 envelope-mediated cell-cell fusion – cherry-pick, dose response (AID 652057). The class given is functional, cell-based.
A further data set addresses Cytochrome P450 2C9 (Homo sapiens, UniProt P11712).
The target in a further data set is Cytochrome P450 2D6 (Homo sapiens, UniProt P10635).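 Note: CYP2D6 member of a cytochrome P450 panel assay.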
A short description of data set [4]: viability of PTEN-deleted HCT116 cells – cell-based, HCT116 PTEN knockout, dose response (AID 1047).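 Note: HCT116 colon tumor cells with PTEN knocked out; cells exposed to compound for 60 hours before readout; potency for loss of cell viability measured by luminescence.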 The class given is functional.
The target of the next data set is Cytochrome P450 2C19 (Homo sapiens, UniProt P33261). Put plainly: Cytochrome panel assay with activity outcomes. Panel member name: p450-cyp2c19 Compounds with AC50 equal or less than 10 uM are considered active. The class given is functional. The note with it: read-out: AC50.
Data set [5] in a line: viability of HCT116 lacking mutant beta-catenin – cell-based, human colon tumor, dose response (AID 1045).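 Note: HCT116 colon tumor cells with beta catenin knocked out; cells exposed to compound for 60 hours.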 The class given is functional.
A further data set has as its target Cytochrome P450 3A4 (Homo sapiens, UniProt P08684).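 Note: CYP3A4 tested as one member of a cytochrome P450 panel screen.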
The next data set deals with H9c2. Put plainly: cells. The format is functional, cell-based. The note with it: Rattus norvegicus, H9c2, Myocardium.
The next data set deals with INS1. Put plainly: INS-1E survival protection against cytokine death – cell-based, luminescence, retest, dose response (AID 449756).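 Note: cell death triggered by IL-1 beta plus TNF-alpha plus IFN-gamma mixture; protective hits raise ATP signal compared with cytokine alone wells.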 The format is functional. The note with it: Rattus norvegicus.
Data set [6] concerns Streptococcus sp. 'group A'. The experiment in a line: Streptococcus pyogenes SK(-)GAS viability under kanamycin – luminescence, BacTiterGlo, confirmation, counter-screen for streptokinase expression inhibitor project, dose response (AID 1900). The format is functional, organism-based. Background: A counterscreen serves to expose hits that act by an unwanted route or on another target.

Another data set deals with Streptococcus. Put plainly: GAS UMAA2166 growth inhibition – luminescence, BacTiterGlo, counter-screen for streptokinase expression inhibitor project, dose response (AID 1915).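 Note: potency for reduction of bacterial viability or growth.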 The class given is functional, organism-based.
The nature of data set [7]: NIH-3T3 fibroblast cytotoxicity, dose response, cytotoxicity control, cell-based, fluorescence, Alamar Blue, secondary assay (AID 2327).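 Note: NIH-3T3 mouse fibroblasts cultured with fluconazole at 8 µg/mL.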 The format is functional. (In general: Resazurin is reduced to fluorescent resorufin, in cell work by metabolically active cells.)

The structures appear in SMILES notation. Active and inactive are the calls of the source.

Chain of Cytochrome P450 2C9 (P11712 whole entry): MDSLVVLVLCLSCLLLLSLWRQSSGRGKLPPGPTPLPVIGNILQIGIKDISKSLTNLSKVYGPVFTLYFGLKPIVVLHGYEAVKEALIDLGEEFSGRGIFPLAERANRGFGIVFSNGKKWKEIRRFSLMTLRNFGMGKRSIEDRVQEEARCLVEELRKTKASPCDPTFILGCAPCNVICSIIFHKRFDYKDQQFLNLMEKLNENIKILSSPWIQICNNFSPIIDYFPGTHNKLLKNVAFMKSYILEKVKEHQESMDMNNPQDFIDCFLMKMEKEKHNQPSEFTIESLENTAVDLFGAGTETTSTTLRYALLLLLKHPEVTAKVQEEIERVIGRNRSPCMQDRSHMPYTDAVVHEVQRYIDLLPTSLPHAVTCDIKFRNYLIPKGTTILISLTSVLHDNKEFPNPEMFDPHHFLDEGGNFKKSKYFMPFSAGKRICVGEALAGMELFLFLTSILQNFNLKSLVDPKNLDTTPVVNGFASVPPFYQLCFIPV
Chain of Cytochrome P450 2D6 (P10635 whole entry): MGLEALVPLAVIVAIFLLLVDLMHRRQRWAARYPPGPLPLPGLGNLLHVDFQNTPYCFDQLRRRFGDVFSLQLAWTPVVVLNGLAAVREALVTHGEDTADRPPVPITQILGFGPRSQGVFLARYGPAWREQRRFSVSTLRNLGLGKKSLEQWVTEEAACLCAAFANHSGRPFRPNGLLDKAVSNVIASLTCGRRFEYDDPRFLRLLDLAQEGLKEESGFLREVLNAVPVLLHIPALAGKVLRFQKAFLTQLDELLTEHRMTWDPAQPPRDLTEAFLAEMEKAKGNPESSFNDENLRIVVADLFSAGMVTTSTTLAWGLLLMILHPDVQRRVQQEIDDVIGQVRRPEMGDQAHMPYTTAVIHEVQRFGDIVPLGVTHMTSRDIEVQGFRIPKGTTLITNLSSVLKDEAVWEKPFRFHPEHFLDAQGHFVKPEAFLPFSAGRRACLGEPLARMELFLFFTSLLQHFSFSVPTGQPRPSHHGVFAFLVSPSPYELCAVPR
Chain of Cytochrome P450 2C19 (P33261 whole entry): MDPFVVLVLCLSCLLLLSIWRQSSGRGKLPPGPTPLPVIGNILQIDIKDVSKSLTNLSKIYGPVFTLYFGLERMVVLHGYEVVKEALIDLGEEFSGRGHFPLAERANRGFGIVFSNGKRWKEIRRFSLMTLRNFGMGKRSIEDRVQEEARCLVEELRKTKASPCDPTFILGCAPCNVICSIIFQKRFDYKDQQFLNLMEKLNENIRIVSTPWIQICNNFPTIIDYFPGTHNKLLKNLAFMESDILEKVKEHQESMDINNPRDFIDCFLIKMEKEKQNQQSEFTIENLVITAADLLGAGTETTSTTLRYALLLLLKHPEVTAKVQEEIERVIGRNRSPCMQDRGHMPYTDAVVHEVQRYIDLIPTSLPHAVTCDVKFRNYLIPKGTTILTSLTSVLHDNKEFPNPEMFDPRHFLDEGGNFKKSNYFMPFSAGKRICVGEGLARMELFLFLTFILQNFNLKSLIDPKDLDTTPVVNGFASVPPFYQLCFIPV
Chain of Cytochrome P450 3A4 (P08684 whole entry): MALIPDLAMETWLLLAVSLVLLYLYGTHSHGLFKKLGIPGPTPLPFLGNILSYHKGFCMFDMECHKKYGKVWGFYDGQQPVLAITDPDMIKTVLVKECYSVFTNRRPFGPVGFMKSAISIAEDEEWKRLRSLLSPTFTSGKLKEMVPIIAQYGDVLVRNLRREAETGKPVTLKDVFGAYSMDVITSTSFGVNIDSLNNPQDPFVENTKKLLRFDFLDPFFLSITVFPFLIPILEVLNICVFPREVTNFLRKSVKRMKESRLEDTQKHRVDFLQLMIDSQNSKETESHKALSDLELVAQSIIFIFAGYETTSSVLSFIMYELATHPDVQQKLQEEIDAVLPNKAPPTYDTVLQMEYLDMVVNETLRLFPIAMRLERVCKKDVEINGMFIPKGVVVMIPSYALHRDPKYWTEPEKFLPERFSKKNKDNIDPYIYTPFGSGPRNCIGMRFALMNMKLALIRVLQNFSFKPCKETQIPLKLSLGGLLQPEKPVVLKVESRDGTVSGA

Usually GI50 stands for the concentration giving 50% growth inhibition. For `CC(=O)NCCCCCCNC(C)=O` [HEXAMETHYLENEBISACETAMIDE], the GI50 in the data set with P388/ADR is 3520 µM (inactive); in the data set with P388 it was 4260 µM (inactive); in the data set on SN12K1, 9930 µM (inactive).

With `CSc1nc2c(ncn2C2OCC(O)C(O)C2O)c(=O)n1C` (stereo not drawn), the GI50 with P388/ADR, in the data set with P388 and in the data set on SN12K1 was > 100 µM (inactive) each time.

As to `COc1cc(C2c3cc4c(cc3[C@@H](Nc3cccc(C(C)=O)c3)C3COC(=O)[C@H]23)OCO4)cc(OC)c1O` (stereo partly drawn), the GI50 was 0.124 µM (active) in the data set on P388/ADR, < 0.01 µM (active) in the data set with P388 and < 0.0361 µM (active) in the data set on SN12K1.

For the compound `C=C/C(C)=C/[C@H](C)C(=O)C[C@H](O)CC1CC(=O)NC(=O)C1`, the GI50 was 27.2 µM (inactive) with P388/ADR, 9.86 µM (inactive) in the data set on P388 and 35.5 µM (inactive) in the data set on SN12K1.

Broadly, the IC50 is the midpoint of a concentration-inhibition curve. Turning to `Cc1ccc(NCC(=O)N/N=C/c2c[nH]c3ccccc23)cc1`, the IC50 in [1] is 16.1 µM (not active).

For orientation: AC50 means the concentration giving half of the maximal activity seen. On to `C[C@@H]1CN([C@@H](C)CO)C(=O)c2cccc(NC(=O)C3CCCCC3)c2O[C@H]1CN(C)CC1CCCCC1`, for which the AC50 in data set [2] was 67.1 µM (active); in data set [3], 3.12 µM (active).

For `O=C(NCC(=O)N(c1ccc(F)cc1)C(C(=O)NC1CCCC1)c1cccnc1)c1cccs1` (stereo not drawn), the IC50 in data set [1] was < 0.4 µM (not active).

On to `Cc1c(N=NN(C)C)cc[n+]([O-])c1C`, for which the GI50 in the data set with P388/ADR, in the data set on P388 and with SN12K1 was > 100 µM (inactive) in each case.

With `CCOC(=O)C(N)CSC(=O)NC` (stereo not drawn), the GI50 was 12.3 µM (inactive) in the data set with P388/ADR, 30.1 µM (inactive) with P388 and 44.1 µM (inactive) in the data set on SN12K1.

With `CNC(=O)OCc1nc(SSC(C)(C)C)n(C)c1COC(=O)NC`, the GI50 was 2.47 µM (inactive) in the data set with P388/ADR, 1.12 µM (inactive) with P388 and 5.13 µM (inactive) in the data set on SN12K1.

Turning to `CCOC(=O)c1sc(SCC(=O)Nc2ccc(N(C)C)cc2)nc1N`, the IC50 in data set [1] was 30.7 µM (not active).

As for `CCOc1ccc(OCc2ccc(C(=O)N3CCCC(C)C3)cc2)cc1` (stereo not drawn), in data set [1], the IC50 was 10.5 µM (active).

As to `CNc1nc(-c2ccccc2Cl)nc2ccccc12`, the concentration at half-maximal activity (AC50) entry is “inconclusive” on Cytochrome P450 2C9 and 39.8 µM (inconclusive) on Cytochrome P450 2D6.

As a reminder, the EC50 is the concentration at which the effect is half-maximal. Take `CCOC(=O)C1=C(c2ccccc2)N=c2s/c(=C\c3ccc(O)cc3)c(=O)n2C1c1cccs1` (stereo not drawn): the AC50 entry at Cytochrome P450 2C9 is “inconclusive”; at Cytochrome P450 2C19 it was 3.98 µM (inconclusive). The EC50 in data set [4] is 19.7 µM (active); in [5], 17.9 µM (active).

Regarding `Cc1ccc(CNc2nc(Cl)c(C#N)s2)cc1`, the IC50 in data set [1] is 4.33 µM (not active).

`C[C@H](C(=O)N(C)C[C@@H]1OCc2ccccc2-c2ccccc2C(=O)N([C@@H](C)CO)C[C@@H]1C)c1ccccc1`: the AC50 in [2] and in [3] was < 0.26 µM (active) each time.

`C/C([O-])=C(/c1nc(-c2ccc([N+](=O)[O-])o2)no1)[n+]1cc(C)ccc1C`: the GI50 in the data set with P388/ADR was > 100 µM (inactive); with P388, 54.8 µM (inactive); in the data set on SN12K1, 13.4 µM (inactive).

For the compound `C[C@H](CO)N1C[C@H](C)[C@H](CN(C)S(=O)(=O)c2ccc(F)cc2)Oc2ccc(NS(=O)(=O)c3ccccc3)cc2CC1=O`, the AC50 was 28.2 µM (active) in [2] and 16.8 µM (active) in data set [3].

`CO[C@H]1C[C@](C)(O)Cc2cc3c(c(O)c21)C(=O)c1c(O)cc2c(c1C3=O)O[C@@H]1O[C@@]2(C)[C@H](O)[C@@H](N(C)C)[C@@H]1O`: the GI50 with P388/ADR is 1.21 µM (inactive); in the data set on P388, 0.054 µM (active); in the data set with SN12K1, 0.0736 µM (active).

Consider `CCCc1cc(-c2nnc(S)n2CC(C)C)cs1`, for which the IC50 in data set [1] is reported as > 50 µM (not active).

Turning to `Cc1cccc(OCCC(=O)Nc2ccc(C)c(S(=O)(=O)N3CCCCC3)c2)c1`, in [1], the IC50 is given as 5.33 µM (not active).

On to `COc1cc(C2c3cc4c(cc3[C@@H](Nc3ccc(N5CCOCC5)cc3)C3COC(=O)[C@H]23)OCO4)cc(OC)c1O` (stereo partly drawn), for which the values for the GI50 in the data set on P388/ADR, in the data set on P388 and in the data set with SN12K1 were 0.0735 µM (active), < 0.01 µM (active) and 1 µM (active), respectively.

Take `C#CC[C@@]12CC(=O)C[C@@H]1CCC1(C2)OCCO1.C#CC[C@]12CC(=O)CC[C@H]1CC(=O)C2`: the GI50 in the data set on P388/ADR was 36.6 µM (inactive); with P388 it was 23.7 µM (inactive); in the data set with SN12K1, > 100 µM (inactive).

On to `O=NN(CCCl)C(=O)N[C@H]1CC[C@@H](C(=O)O)CC1`, for which the GI50 is 5.26 µM (inactive) in the data set on P388/ADR, 5.14 µM (inactive) in the data set on P388 and 98.6 µM (inactive) in the data set with SN12K1.

Regarding `Cc1noc(C)c1COC(=O)CNC(=O)c1cccc(F)c1`, in [1], the IC50 is > 50 µM (not active).

Take `COc1cc(-c2nnc(-c3ccc(N4CCOCC4)cc3)o2)cc(OC)c1OC`: the AC50 result is “inconclusive” on Cytochrome P450 2C9 and 7.94 µM (inconclusive) at Cytochrome P450 3A4. Moreover, in the data set with H9c2, the IC50 was > 79 µM (inactive).

As for `C[C@H](CO)N1C[C@H](C)[C@H](CN(C)S(=O)(=O)c2cccs2)Oc2ccc(NC(=O)C3CCCCC3)cc2CC1=O`, the values for the AC50 in data set [2] and in data set [3] were 5.23 µM (active) and 0.436 µM (active), respectively.

For `O=C(NC(c1ccccc1)C(O)C(=O)OCc1ccc2c(c1)C(=O)c1ccccc1C2=O)c1ccccc1` (stereo not drawn), the GI50 was 33.8 µM (inactive) with P388/ADR, 90.2 µM (inactive) with P388 and 1.84 µM (inactive) with SN12K1.

As to `O=c1cnn(C2OC(CO)C(O)C2O)c(=S)[nH]1` (stereo not drawn), the concentration for 50% growth inhibition (GI50) is 0.933 µM (active) with P388/ADR, 1.92 µM (inactive) in the data set with P388 and 3.06 µM (inactive) in the data set on SN12K1.

For `CCOC(=O)c1ccc(N[C@@H]2c3cc4c(cc3C(c3cc(OC)c(O)c(OC)c3)[C@H]3C(=O)OCC32)OCO4)cc1` (stereo partly drawn), the GI50 in the data set with P388/ADR was 0.0256 µM (active); with P388, < 0.01 µM (active); in the data set with SN12K1 it was < 0.01 µM (active).

For the compound `COc1cccc(CNc2ccc([N+](=O)[O-])c(NCC(=O)O)n2)c1`, in data set [1], the IC50 is 5.38 µM (active).

Take `N/C(=N\O)N/N=C\c1cc([N+](=O)[O-])cc([N+](=O)[O-])c1O`: the GI50 in the data set with P388/ADR was 7.59 µM (inactive); in the data set on P388, 2.3 µM (inactive); in the data set with SN12K1, 0.743 µM (active).

Take `CC(=O)N1c2c(cc(Br)cc2S(=O)(=O)NCC2COc3ccccc3O2)CC1C` (stereo not drawn): the values for the AC50 entry on Cytochrome P450 2C9 and at Cytochrome P450 2D6 were “inconclusive” and 17.8 µM (inconclusive), respectively.

Turning to `CN(C(=O)c1ccc(OCCCC(=O)O)c(Cl)c1Cl)C1CCCC1`, the GI50 with P388/ADR is > 100 µM (inactive); in the data set with P388 it was > 100 µM (inactive); in the data set with SN12K1 it was > 89.5 µM (inactive).

In the case of `COc1ccc2cc1Oc1ccc(cc1)C[C@H]1c3cc(c(OC)cc3CCN1C)Oc1c(O)c(OC)cc3c1[C@H](C2)N(C)CC3` [FANGCHINOLINE], the AC50 in the data set with INS1 is 5.84 µM (active). Besides, the GI50 with P388/ADR was 2.58 µM (inactive); in the data set on P388 it was 2 µM (inactive); with SN12K1, 18.3 µM (inactive).

As to `ClCc1nnc2n1-c1ccc(Cl)cc1SC2`, the GI50 in the data set with P388/ADR was 1.66 µM (inactive); in the data set with P388, 0.927 µM (active); with SN12K1, 2.83 µM (inactive).

Consider `CCCCCCCCCCCC1=C(O)C(=O)C=C(O)C1=O` [EMBELIN], for which the GI50 in the data set with P388/ADR is 9.66 µM (inactive); with P388, 1.78 µM (inactive); in the data set with SN12K1, 3.74 µM (inactive). In addition, the EC50 in data set [6] is 1.58 µM (active); in the data set with Streptococcus, 3.32 µM (active); in [7], 5.02 µM (inconclusive).

As to `CSc1ncccc1C(=O)OCC(=O)Nc1ccc2c(c1)OCO2`, in data set [1], the IC50 is < 0.4 µM (not active).
